Here are results for 39 compounds from patent US7446104B2, “Phenylalkynes” (Ortho-McNeil Pharmaceutical, Inc., priority 2001, dated 2008).

In the first experiment the target is T1, human histamine H3 receptor (Homo sapiens, UniProt Q9Y5N1).
T1 construct: One microgram of supercoiled H3 receptor cDNA was added to the cells and mixed; expressed in transfected cells; membranes prepared from cell pellets
T1 sequence (Q9Y5N1 whole entry): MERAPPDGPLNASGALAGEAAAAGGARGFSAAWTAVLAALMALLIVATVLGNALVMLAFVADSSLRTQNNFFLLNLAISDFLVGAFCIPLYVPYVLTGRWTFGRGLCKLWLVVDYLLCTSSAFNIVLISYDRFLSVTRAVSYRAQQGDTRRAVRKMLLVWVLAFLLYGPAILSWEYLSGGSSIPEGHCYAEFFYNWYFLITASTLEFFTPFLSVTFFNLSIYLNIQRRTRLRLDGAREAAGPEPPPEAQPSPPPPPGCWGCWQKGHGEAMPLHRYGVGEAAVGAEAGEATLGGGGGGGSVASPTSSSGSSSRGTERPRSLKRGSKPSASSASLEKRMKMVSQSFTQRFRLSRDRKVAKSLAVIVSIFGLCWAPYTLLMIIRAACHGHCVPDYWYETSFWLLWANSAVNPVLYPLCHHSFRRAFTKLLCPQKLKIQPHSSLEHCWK
The experiment can be described thus: [3H]-N-methylhistamine binding.
Details: not given
As to the method:
Transfection of Cells with Human Histamine Receptor
A 10 cm tissue culture dish with a confluent monolayer of SK-N-MC cells was split two days prior to transfection. Using sterile technique the media were removed and the cells were detached from the dish by the addition of trypsin. One fifth of the cells were then placed onto a new 10 cm dish. Cells were grown in a 37° C. incubator with 5% CO2 in Minimal Essential Media Eagle with 10% Fetal Bovine Serum. After two days cells were approximately 80% confluent. These were removed from the dish with trypsin and pelleted in a clinical centrifuge. The pellet was then re-suspended in 400 μL complete media and transferred to an electroporation cuvette with a 0.4 cm gap between the electrodes. One microgram of supercoiled H3 receptor cDNA was added to the cells and mixed. The voltage for the electroporation was set at 0.25 kV, the capacitance was set at 960 μF. After electroporation the cells were diluted into 10 mL complete media and plated onto four 10 cm dishes. Because of the variability in the efficiency of electroporation, four different concentrations of cells were plated. The ratios used were; 1:20, 1:10, 1:5, with the remainder of the cells being added to the fourth dish. The cells were allowed to recover for 24 hours before adding the selection media (complete media with 600 μg/mL G418). After 10 days dishes were analyzed for surviving colonies of cells. Dishes with well isolated colonies were used. Cells from individual colonies were isolated and tested. SK-N-MC cells were used because they give efficient coupling for inhibition of adenylate cyclase. The clones that gave the most robust inhibition of adenylate cyclase in response to histamine were used for further study.
[^3H]-N-methylhistamine Binding
Cell pellets from histamine H3 receptor-expressing SK-N-MC cells were homogenized in 20 mM Tris HCl/0.5 mM EDTA. Supernatants from a 800 g spin were collected, recentrifuged at 30,000 g for 30 min. Pellets were re-homogenized in 50 mM Tris/5 mM EDTA (pH 7.4). Membranes were incubated with 0.8 nM [^3H]-N-methylhistamine plus/minus test compounds for 45 min at 25° C. and harvested by rapid filtration over GF/C glass fiber filters (pretreated with 0.3% polyethylenimine) followed by four washes with ice cold buffer. Filters were dried, added to 4 mL scintillation cocktail and then counted on a liquid scintillation counter. Non-specific binding was defined with 10 μM histamine.
Regarding `C(#Cc1cccc(CN2CCCCC2c2cccnc2)c1)CCN1CCCCC1` (stereo not drawn) [Example 42, 1-[3-(4-Piperidin-1-yl-but-1-ynyl)-benzyl]-1,2,3,4,5,6-hexahydro-[2,3′]bipyridinyl], the Ki was 11 nM.
In turn, `CN1CCN(Cc2ccc(C#CCCN3CCCCC3)cc2)CC1` [Example 32, 1-Methyl-4-[4-(4-piperidin-1-yl-but-1-ynyl)-benzyl]-piperazine] returned an inhibitory constant (Ki) of 0.7 nM.
The same measure, in the same setting: the value for `C(#Cc1ccc(CN2CCN(Cc3ccccc3)CC2)cc1)CCN1CCCCC1` [Example 36, 1-Benzyl-4-[4-(4-piperidin-1-yl-but-1-ynyl)-benzyl]-piperazine] was 9 nM.
For `CN(CCc1c[nH]c2ccccc12)Cc1cccc(C#CCCN2CCCCC2)c1` [Example 52, [2-(1H-Indol-3-yl)-ethyl]-methyl-[3-(4-piperidin-1-yl-but-1-ynyl)-benzyl]-amine], the affinity corresponds to a Ki of 2 nM.
Same read-out and setting: the value for `FC(F)(F)c1cccc(N2CCN(Cc3cccc(C#CCCN4CCCCC4)c3)CC2)c1` [Example 43, 1-[3-(4-Piperidin-1-yl-but-1-ynyl)-benzyl]-4-(3-trifluoromethyl-phenyl)-piperazine] was 91 nM; that for `C(#Cc1ccc(CN2CCNCC2)cc1)CCN1CCCCC1` [Example 38, 1-[4-(4-Piperidin-1-yl-but-1-ynyl)-benzyl]-piperazine] was 1.3 nM.

The experiment is the same for the next values; noted with them: membranes of histamine H3 receptor-expressing SK-N-MC cells; 0.8 nM [3H]-N-methylhistamine; 45 min at 25° C.; read-out: Ki.
For the compound `C(#Cc1ccc(CN2CCCC3CCCCC32)cc1)CCN1CCCCC1` (stereo not drawn) [Example 29, 1-[4-(4-Piperidin-1-yl-but-1-ynyl)-benzyl]-decahydro-quinoline], the Ki stood at 0.8 nM.
On the same count and under the same terms, with `C(#Cc1cccc(CN2CCCCC2)c1)CCN1CCCCC1` [Example 15, 1-[3-(4-Piperidin-1-yl-but-1-ynyl)-benzyl]-piperidine] the figure was 0.8 nM.
In the case of `CC(C)(C)OC(=O)N1CCN(Cc2ccc(C#CCCN3CCCCC3)cc2)CC1` [Example 37, 4-[4-(4-Piperidin-1-yl-but-1-ynyl)-benzyl]-piperazine-1-carboxylic acid tert-butyl ester], the Ki came out at 15 nM.
For `C(#Cc1cccc(CN2CCSCC2)c1)CCN1CCCCC1` [Example 48, 4-[3-(4-Piperidin-1-yl-but-1-ynyl)-benzyl]-thiomorpholine], the Ki turned out to be 1 nM.
On the same count and under the same terms, with `C(#Cc1ccc(CNC2CCc3ccccc32)cc1)CCN1CCCCC1` (stereo not drawn) [Example 34, Indan-1-yl-[4-(4-piperidin-1-yl-but-1-ynyl)-benzyl]-amine] the figure was 1.3 nM; with `C(#Cc1cccc(CN2CCN(c3ncccn3)CC2)c1)CCN1CCCCC1` [Example 44, 2-{4-[3-(4-Piperidin-1-yl-but-1-ynyl)-benzyl]-piperazin-1-yl}-pyrimidine], 9 nM; with `C(#Cc1cccc(CN2CCCC2)c1)CCN1CCCCC1` [Example 55, 1-[4-(3-Pyrrolidin-1-ylmethyl-phenyl)-but-3-ynyl]-piperidine], 1 nM.
On to `C(#Cc1ccc(CN2CCC3(CC2)OCCO3)cc1)CCN1CCCCC1` [Example 31, 8-[4-(4-Piperidin-1-yl-but-1-ynyl)-benzyl]-1,4-dioxa-8-aza-spiro[4.5]decane], for which the Ki is 1.8 nM.
Turning to `CCN(CC)Cc1ccc(C#CCCN2CCCCC2)cc1` [Example 25, Diethyl-[4-(4-piperidin-1-yl-but-1-ynyl)-benzyl]-amine], the Ki came out at 1.1 nM.
The same measure, in the same setting: the value for `OC1CCN(Cc2ccc(C#CCCN3CCCCC3)cc2)CC1` [Example 27, 1-[4-(4-Piperidin-1-yl-but-1-ynyl)-benzyl]-piperidin-4-ol] was 1.7 nM; that for `C(#Cc1ccc(CN2CCC(Cc3ccccc3)CC2)cc1)CCN1CCCCC1` [Example 26, 1-{4-[4-(4-Benzyl-piperidin-1-ylmethyl)-phenyl]-but-3-ynyl}-piperidine] was 2.9 nM.
For the compound `CN(CCc1ccccn1)Cc1cccc(C#CCCN2CCCCC2)c1` [Example 46, Methyl-[3-(4-piperidin-1-yl-but-1-ynyl)-benzyl]-(2-pyridin-2-yl-ethyl)-amine], the Ki was 4 nM.
Regarding `C(#Cc1ccc(CN2CCCC2)cc1)CCN1CCCCC1` [Example 23, 1-[4-(4-Pyrrolidin-1-ylmethyl-phenyl)-but-3-ynyl]-piperidine], the Ki was 1.4 nM.
As for `CCN(CC)CCC#Cc1ccc(CN2CCCCC2)cc1` [Example 19, Diethyl-[4-(4-piperidin-1-ylmethyl-phenyl)-but-3-ynyl]-amine], the Ki worked out at 2.4 nM.
Same read-out and setting: with `C(#Cc1ccc(CN2CCCCC2)cc1)CCN1CCOCC1` [Example 21, 4-[4-(4-Piperidin-1-ylmethyl-phenyl)-but-3-ynyl]-morpholine] the figure was 15 nM.
For the compound `C(#Cc1ccc(CN2CCCCC2)cc1)CCN1CCCCC1` [Example 14, 1-[4-(4-Piperidin-1-ylmethyl-phenyl)-but-3-ynyl]-piperidine], the Ki was determined as 1.6 nM.
On the same count and under the same terms, the value for `C(#Cc1ccc(CN2CCOCC2)cc1)CCN1CCCCC1` [Example 24, 4-[4-(4-Piperidin-1-yl-but-1-ynyl)-benzyl]-morpholine] was 5.5 nM.
Consider `COc1ccc(CCN(C)Cc2cccc(C#CCCN3CCCCC3)c2)cc1OC` [Example 47, [2-(3,4-Dimethoxy-phenyl)-ethyl]-methyl-[3-(4-piperidin-1-yl-but-1-ynyl)-benzyl]-amine], for which the Ki came out at 3 nM.
Consider `C(#Cc1ccc(CN2CCCCC2)cc1)CCN1CCSCC1` [Example 20, 4-[4-(4-Piperidin-1-ylmethyl-phenyl)-but-3-ynyl]-thiomorpholine], for which the Ki worked out at 6 nM.
In the case of `CC(C)N1CCN(Cc2ccc(C#CCCN3CCCCC3)cc2)CC1` [Example 39, 1-Isopropyl-4-[4-(4-piperidin-1-yl-but-1-ynyl)-benzyl]-piperazine], the Ki is 1.3 nM.
For the compound `NC(=O)C1CCN(Cc2ccc(C#CCCN3CCCCC3)cc2)CC1` [Example 30, 1-[4-(4-Piperidin-1-yl-but-1-ynyl)-benzyl]-piperidine-4-carboxylic acid amide], the Ki was 1.6 nM.
Still for that read-out and setting: with `C(#Cc1cccc(CNc2ccccc2)c1)CCN1CCCCC1` [Example 54, Phenyl-[3-(4-piperidin-1-yl-but-1-ynyl)-benzyl]-amine] the figure was 110 nM.
The same measure, in the same setting: the value for `CN1CCN(CCC#Cc2ccc(CN3CCCCC3)cc2)CC1` [Example 22, 1-Methyl-4-[4-(4-piperidin-1-ylmethyl-phenyl)-but-3-ynyl]-piperazine] was 21 nM; that for `CCN(CC)C(=O)C1CCCN(Cc2cccc(C#CCCN3CCCCC3)c2)C1` (stereo not drawn) [Example 41, 1-[3-(4-Piperidin-1-yl-but-1-ynyl)-benzyl]-piperidine-3-carboxylic acid diethylamide] was 3 nM.
The same measure, in the same setting: the value for `C(#Cc1ccc(CN2CCCCC2)cc1)CCN1CCCC1` [Example 18, 1′-[4-(4-Pyrrolidin-1-yl-but-1-ynyl)-benzyl]-piperidine] was 2 nM; that for `C=CCN(Cc1cccc(C#CCCN2CCCCC2)c1)C1CCCC1` [Example 49, Allyl-cyclopentyl-[3-(4-piperidin-1-yl-but-1-ynyl)-benzyl]-amine] was 2 nM; that for `C(#Cc1cccc(CN2CCSC2)c1)CCN1CCCCC1` [Example 51, 1-[4-(3-Thiazolidin-3-ylmethyl-phenyl)-but-3-ynyl]-piperidine] was 1 nM.
Consider `NC(=O)C1CCN(Cc2cccc(C#CCCN3CCCCC3)c2)CC1` [Example 45, 1-[3-(4-Piperidin-1-yl-but-1-ynyl)-benzyl]-piperidine-4-carboxylic acid amide], for which the Ki came out at 2 nM.
On the same count and under the same terms, with `C(#Cc1cccc(CN2CCCCCCCCCCCC2)c1)CCN1CCCCC1` [Example 56, 1-[3-(4-Piperidin-1-yl-but-1-ynyl)-benzyl]-azacyclotridecane] the figure was 13 nM.
On the same count and under the same terms, with `C(#Cc1cccc(CN2CCOCCOCCOCC2)c1)CCN1CCCCC1` [Example 50, 10-[3-(4-Piperidin-1-yl-but-1-ynyl)-benzyl]-1,4,7-trioxa-10-aza-cyclododecane] the figure was 2 nM.
Same read-out and setting: with `C(#Cc1ccc(CN2CCN(c3ccccc3)CC2)cc1)CCN1CCCCC1` [Example 35, 1-Phenyl-4-[4-(4-piperidin-1-yl-but-1-ynyl)-benzyl]-piperazine] the figure was 7 nM; with `OCCC1CCCCN1Cc1ccc(C#CCCN2CCCCC2)cc1` (stereo not drawn) [Example 28, 2-{1-[4-(4-Piperidin-1-yl-but-1-ynyl)-benzyl]-piperidin-2-yl}-ethanol], 0.4 nM.

Staying with this experiment, now noted: read-out: Ki.
Take `O=C1NCN(c2ccccc2)C12CCN(Cc1cccc(C#CCCN3CCCCC3)c1)CC2` [Example 40, 1-Phenyl-8-[3-(4-piperidin-1-yl-but-1-ynyl)-benzyl]-1,3,8-triaza-spiro[4.5]decan-4-one]: the Ki was 2 nM.
